The values below come from publication PMC8351955, “Targeting Mycobacterium tuberculosis response to environmental cues for the development of effective antitubercular drugs” (PLoS Biology, 2021).

Each structure is given as a SMILES string. Like-named read-outs stand apart in the source and are kept apart here.

The subject of assay [1] is CDC1551(rv2390c′::GFP) reporter Mtb strain, response to high [Cl−]. As to the kind of experiment: microbe, parasite or virus in culture. The format is cell-based, Mycobacterium tuberculosis. Particulars: Mycobacterium tuberculosis, 144 h; for activity at 20 µM: read-out: rv2390c'::GFP validation assay NPA% at 20 µM compound.
Assay [2] relates to CDC1551(rv1405c′::GFP) reporter Mtb strain. As to the kind of experiment: microbe, parasite or virus in culture. The assay is classed as cell-based, Mycobacterium tuberculosis. The settings on record: Mycobacterium tuberculosis; for activity at 10 µM: read-out: rv1405c'::GFP secondary assay NPA% at 10 µM compound; for activity at 20 µM: read-out: rv1405c'::GFP secondary assay NPA% at 20 µM compound.

Where [3] appears, read: pH 6.4, […], DMSO positive control = 100%, read-out: Primary screen rv2390c'::GFP NPA%.
Setting [4] is: 10 µM, pH 6.4, 250 mM NaCl, 6 days, read-out: rv2390c'::GFP validation assay NPA% at 10 µM compound.

Take `Cc1ccccc1OCC(=O)NCc1ccc(C)n1C` [RU-0272839, CN1C(C)=CC=C1CNC(=O)COC1=C(C)C=CC=C1]: the activity at 10 µM in assay [1] (setting [3]) was determined as 215%; in assay [1] (setting [4]), 161 ± 13.6%; in assay [2], 93 ± 7.6%. Besides, the activity at 20 µM in assay [1] (pH 6.4, 250 mM NaCl, 6 days) is 204 ± 5.5%; in assay [2] it was 104 ± 5.9%.
As for `Cc1ccc(-n2nc(C)c3c(=O)[nH]c(C(F)(F)F)nc32)cc1` [RU-0271306, CC1=NN(C2=C1C(=O)NC(=N2)C(F)(F)F)C1=CC=C(C)C=C1], the results for the activity at 10 µM in assay [1] (setting [3]), in assay [1] (setting [4]) and in assay [2] were 40.8%, 30.6 ± 2.4% and 37.3 ± 1.3%, respectively. The activity at 20 µM was 36.6 ± 3.4% in assay [1] (pH 6.4, 250 mM NaCl, 6 days) and 11.5 ± 4.6% in assay [2].
In the same order, the values of `CCCc1oncc1C(=O)NC1CC(=O)N(CCc2ccc(F)cc2)C1` (stereo not shown) [RU-0245406, CCCC1=C(C=NO1)C(=O)NC1CN(CCC2=CC=C(F)C=C2)C(=O)C1] are 172%, 126 ± 7.5%, 87.7 ± 9%, 163 ± 6.6% and 114 ± 25.7%.
For `O=C(O)c1cc(-c2ccc(N3CCOCC3)cc2)nn1-c1ccc(F)cc1` [RU-0206470, OC(=O)C1=CC(=NN1C1=CC=C(F)C=C1)C1=CC=C(C=C1)N1CCOCC1], in that order: 157%, 111 ± 10.3%, 104 ± 4.5%, 165 ± 15.9% and 158 ± 23.6%.
For `Cc1sc(NS(=O)(=O)c2ccc(F)c(F)c2)c(C(N)=O)c1C` [RU-0205217, CC1=C(C)C(C(N)=O)=C(NS(=O)(=O)C2=CC(F)=C(F)C=C2)S1], in that order: 163%, 128 ± 4.7%, 305 ± 31.1%, 217 ± 16.5% and 741 ± 74%.
With `CCOC(=O)C(C)Sc1nc2c(cnn2-c2ccccc2)c(=O)[nH]1` (stereo not shown) [RU-0212119, CCOC(=O)C(C)SC1=NC2=C(C=NN2C2=CC=CC=C2)C(=O)N1], the values for the activity at 10 µM in assay [1] (setting [3]), in assay [1] (setting [4]) and in assay [2] were 34.7%, 48.1 ± 4.6% and 33.4 ± 2.2%, respectively. For the same compound, the activity at 20 µM came out at 40.2 ± 4.8% in assay [1] (pH 6.4, 250 mM NaCl, 6 days) and 14.5 ± 3.4% in assay [2].
For `COc1ccc(NCc2ccc(OC)c(Br)c2)cn1` [RU-0270711, COC1=NC=C(NCC2=CC(Br)=C(OC)C=C2)C=C1], the activity at 10 µM came to 162% in assay [1] (setting [3]), 135 ± 4% in assay [1] (setting [4]) and 227 ± 8.7% in assay [2]. Also, the activity at 20 µM in assay [1] (pH 6.4, 250 mM NaCl, 6 days) was found to be 292 ± 6.7%; in assay [2] it was 603 ± 10.5%.
On to `Cc1csc(/C(C#N)=C\c2ccc(C3CC3C)o2)n1` (stereo not shown) [RU-0200280, CC1CC1C1=CC=C(O1)\C=C(\C#N)C1=NC(C)=CS1], for which the activity at 10 µM in assay [1] (setting [3]) was determined as 277%; in assay [1] (setting [4]), 144 ± 5.5%; in assay [2], 399 ± 31.8%. Besides, the activity at 20 µM in assay [1] (pH 6.4, 250 mM NaCl, 6 days) was 248 ± 21.2%.
As to `Cc1oc(C(=O)Nc2nnc(C(F)(F)F)[nH]2)cc1S(=O)(=O)N1CCCC1` [RU-0213804, CC1=C(C=C(O1)C(=O)NC1=NN=C(N1)C(F)(F)F)S(=O)(=O)N1CCCC1], the figures for the activity at 10 µM in assay [1] (setting [3]), in assay [1] (setting [4]) and in assay [2] were 31.2%, 54.8 ± 1.2% and 39.8 ± 7.2%, respectively. Also, the activity at 20 µM in assay [1] (pH 6.4, 250 mM NaCl, 6 days) came out at 42.3 ± 1%; in assay [2], 21.3 ± 6%.
In the same order, the values of `O=C(Cc1ccc2c(c1)CCC2)NCc1ccccc1F` [RU-0268882, FC1=C(CNC(=O)CC2=CC3=C(CCC3)C=C2)C=CC=C1] are 175%, 130 ± 7%, 103 ± 10.5%, 176 ± 16.5% and 105 ± 20.7%.
With `Cc1cc(NS(=O)(=O)Cc2cccc(C(F)(F)F)c2)n(C)n1` [RU-0274447, CN1N=C(C)C=C1NS(=O)(=O)CC1=CC(=CC=C1)C(F)(F)F], the activity at 10 µM in assay [1] (setting [3]) was 186%; in assay [1] (setting [4]) it was 171 ± 11.2%; in assay [2], 303 ± 7.6%. The activity at 20 µM in assay [1] (pH 6.4, 250 mM NaCl, 6 days) amounted to 252 ± 10.1%; in assay [2] it was 619 ± 9.2%.
For `CCCn1ncc(C(=O)NC(C)C(=O)Nc2ccc(F)cc2C)c1C` (stereo not shown) [RU-0232065, CCCN1N=CC(C(=O)NC(C)C(=O)NC2=CC=C(F)C=C2C)=C1C], the activity at 10 µM in assay [1] (setting [3]) stood at 154%; in assay [1] (setting [4]) it was 119 ± 6.6%; in assay [2] it was 91.3 ± 9.4%. Further, the activity at 20 µM in assay [1] (pH 6.4, 250 mM NaCl, 6 days) is 147 ± 14.2%; in assay [2] it was 98.3 ± 13%.
In the same order, the values of `Cc1ccc(-c2nc3nc(N)n(C)c(=O)c3nc2-c2ccc(C)cc2)cc1` [RU-0192424, CN1C(N)=NC2=NC(C3=CC=C(C)C=C3)=C(N=C2C1=O)C1=CC=C(C)C=C1] are 160%, 140 ± 10.1%, 97 ± 3.1%, 169 ± 12.3% and 120 ± 9.3%.
For `Cc1ccc(NC(=O)[C@@H]2CCCN2S(=O)(=O)c2ccccc2F)cc1` [RU-0270461, CC1=CC=C(NC(=O)[C@@H]2CCCN2S(=O)(=O)C2=C(F)C=CC=C2)C=C1], in that order: 151%, 116 ± 6.6%, 98.1 ± 2.7%, 168 ± 4% and 159 ± 7.6%.
For `COc1ccc2c(CN3CCOCC(CN(C)C)C3)cn(C)c2c1` (stereo not shown) [RU-0260647, COC1=CC=C2C(CN3CCOCC(CN(C)C)C3)=CN(C)C2=C1], in that order: 162%, 114 ± 3.2%, 112 ± 2.5%, 130 ± 7.6% and 130 ± 3.6%.
Turning to `O=C(NC[C@H]1C[C@H]2C=C[C@H]1C21CC1)c1cnc(N2CCOCC2)nc1` [RU-0184528, O=C(NC[C@H]1C[C@H]2C=C[C@H]1C21CC1)C1=CN=C(N=C1)N1CCOCC1], the activity at 10 µM was 158% in assay [1] (setting [3]), 111 ± 2.1% in assay [1] (setting [4]) and 104 ± 21.9% in assay [2]. The activity at 20 µM in assay [1] (pH 6.4, 250 mM NaCl, 6 days) is 134 ± 13.6%; in assay [2], 136 ± 11.8%.
In the case of `CCOC(=O)N1C/C(=C/c2cccc(O)c2)C(=O)/C(=C/c2cccc(O)c2)C1` [RU-0202273, CCOC(=O)N1C\C(=C\C2=CC(O)=CC=C2)C(=O)\C(C1)=C\C1=CC(O)=CC=C1], the figures for the activity at 10 µM in assay [1] (setting [3]), in assay [1] (setting [4]) and in assay [2] were 154%, 113 ± 3.2% and 84.5 ± 18.2%, respectively. The activity at 20 µM in assay [1] (pH 6.4, 250 mM NaCl, 6 days) is 117 ± 11%; in assay [2], 158 ± 19.3%.
In the same order, the values of `OCC(CNc1nc(N2CCCC2)nc(N2CCCC2)n1)Cc1ccco1` (stereo not shown) [RU-0198952, OCC(CNC1=NC(=NC(=N1)N1CCCC1)N1CCCC1)CC1=CC=CO1] are 170%, 123 ± 7.8%, 171 ± 12.8%, 194 ± 15.6% and 380 ± 28.2%.
In the same order, the values of `C(=C\c1ccccc1)/Cn1nnc(-c2cccs2)n1` [RU-0207924, C(\C=C\C1=CC=CC=C1)N1N=NC(=N1)C1=CC=CS1] are 152%, 114 ± 1.5%, 97.4 ± 8.8%, 137 ± 4% and 125 ± 16.3%.
In the same order, the values of `CCCC(C)c1nnc(NC(=O)c2nnc3nc(C)cc(C)n23)s1` (stereo not shown) [RU-0225311, CCCC(C)C1=NN=C(NC(=O)C2=NN=C3N=C(C)C=C(C)N23)S1] are 155%, 116 ± 6.7%, 110 ± 9.7%, 195 ± 6.5% and 137 ± 16.9%.
As for `CC1(C)CC2CC(C)(CN2CC(O)COc2ccc(F)cc2Cl)C1` (stereo not shown) [RU-0218667, CC12CC(CC(C)(C)C1)N(CC(O)COC1=C(Cl)C=C(F)C=C1)C2], the activity at 10 µM came out at 154% in assay [1] (setting [3]), 118 ± 1.5% in assay [1] (setting [4]) and 129 ± 4.5% in assay [2]. Further, the activity at 20 µM in assay [1] (pH 6.4, 250 mM NaCl, 6 days) came out at 173 ± 5.5%; in assay [2], 233 ± 4.2%.
For `CC(C)(C)n1cc(C#N)c(NS(=O)(=O)c2cccc(F)c2)n1` [RU-0277089, CC(C)(C)N1C=C(C#N)C(NS(=O)(=O)C2=CC(F)=CC=C2)=N1], in that order: 45.4%, 51.2 ± 5.5%, 43.2 ± 4.1%, 28.2 ± 0.7% and 17.4 ± 5.4%.
For `CC(C)Cc1cc(C(=O)N2CCOC(CCCc3ccccc3)C2)[nH]n1` (stereo not shown) [RU-0230474, CC(C)CC1=NNC(=C1)C(=O)N1CCOC(CCCC2=CC=CC=C2)C1], in that order: 198%, 118 ± 12.7%, 98.4 ± 7.5%, 229 ± 26.9% and 172 ± 14.2%.
In the same order, the values of `Cn1cccc1C(=O)NS(=O)(=O)c1ccc(C#N)c(Cl)c1` [RU-0207640, CN1C=CC=C1C(=O)NS(=O)(=O)C1=CC(Cl)=C(C=C1)C#N] are 177%, 148 ± 12.2%, 175 ± 20%, 203 ± 22.6% and 357 ± 29.5%.
For the compound `O=c1[nH]c(SCC2OCCc3ccccc32)nc2[nH]ncc12` (stereo not shown) [RU-0271878, O=C1NC(SCC2OCCC3=C2C=CC=C3)=NC2=C1C=NN2], the activity at 10 µM amounted to 43.3% in assay [1] (setting [3]), 63.4 ± 5.5% in assay [1] (setting [4]) and 57.7 ± 7% in assay [2]. Besides, the activity at 20 µM in assay [1] (pH 6.4, 250 mM NaCl, 6 days) is 24.3 ± 3.8%; in assay [2], 24.9 ± 3.6%.
